Legend:
rat [1] = conditions: Combined chronic toxicity/carcinogenicity, sprague dawley, Oral, Feed, dose end: 104 week, group: systemic
rat [2] = conditions: Prenatal developmental toxicity study, other, Oral, Gavage/Intubation, dose end: 16 GD
rabbit [3] = conditions: Prenatal developmental toxicity study, new zealand white, Oral, Gavage/Intubation, dose end: 19 GD
mouse [4] = conditions: Prenatal developmental toxicity study, other, Oral, Gavage/Intubation, dose end: 15 GD
mouse [5] = conditions: Combined chronic toxicity/carcinogenicity; cd1; Oral; Feed; dose end: 104 week; group: systemic; systemic / in life observation / body weight / body weight gain + systemic / in life observation / clinical signs / lacrimation + systemic…
rat [6] = conditions: Multigenerational reproductive toxicity study, sprague dawley, Oral, Feed, dose end: 2 generation
dog [7] = conditions: Chronic toxicity, beagle, Oral, Feed, dose end: 52 week, group: systemic
rabbit [8] = conditions: Prenatal developmental toxicity study, new zealand white, Oral, Gavage/Intubation, dose end: 19 GD; remark: listed apart in the source
rat [9] = conditions: Prenatal developmental toxicity study, sprague dawley, Oral, Gavage/Intubation, dose end: 16 GD
rat [10] = conditions: Multigenerational reproductive toxicity study, other, Oral, Feed, dose end: 2 generation
dog [11] = conditions: Subchronic oral toxicity in nonrodent, beagle, Feed, dose end: 90 day, group: systemic
rat [12] = conditions: Combined chronic toxicity/carcinogenicity, sprague dawley, Oral, Feed, dose end: 2 year, group: systemic
rat [13] = conditions: Subchronic oral toxicity in rodents, sprague dawley, Feed, dose end: 90 day, group: systemic
rat [14] = conditions: Prenatal developmental toxicity study, sprague dawley, Oral, Feed, dose end: 16 GD
rat [15] = conditions: Prenatal developmental toxicity study, sprague dawley, Oral, Gavage/Intubation, dose end: 16 GD; remark: listed apart in the source
[16] = systemic / pathology microscopic / eye / opacity
[17] = group: developmental, developmental / developmental malformation / bone / incomplete ossification + developmental / developmental malformation / bone / manus …
[18] = group: maternal, systemic / in life observation / body weight / body weight gain + systemic / in life observation / food consumption / food consumption
[19] = group: maternal, systemic / in life observation / body weight / body weight gain + systemic / in life observation / food consumption / food consumption + …
[20] = group: maternal, systemic / in life observation / food consumption / food consumption
[21] = group: developmental, developmental / developmental malformation / bone / incomplete ossification
[22] = group: developmental, developmental / developmental malformation / bone / incomplete ossification + developmental / developmental malformation / bone / full …
[23] = group: developmental, developmental / developmental malformation / bone / [other] + developmental / developmental malformation / eye / open eye + developmental / …
[24] = group: developmental, developmental / developmental malformation / bone / [other] + developmental / developmental malformation / heart / defect a-v septum + …
[25] = group: maternal, systemic / in life observation / clinical signs / abnormal posture + systemic / in life observation / clinical signs / drooping eyelids (…
[26] = group: maternal, systemic / in life observation / clinical signs / piloerection + systemic / in life observation / clinical signs / respiration (rales) + …
[27] = group: offspring, systemic / in life observation / body weight / offspring (pup) weight gain + developmental / offspring survival late / [other] / [other]
[28] = group: offspring, systemic / in life observation / body weight / offspring (pup) weight gain + developmental / offspring survival late / [other] / [other] + …
[29] = group: parental, systemic / pathology microscopic / eye / cataract + systemic / in life observation / body weight / body weight gain + systemic / in life …
[30] = group: parental, systemic / pathology microscopic / eye / cataract + systemic / in life observation / clinical signs / tongue ulcers
[31] = systemic / pathology microscopic / eye / opacity + systemic / organ weight / kidney / absolute + systemic / organ weight / kidney / relative…
[32] = group: developmental, systemic / in life observation / body weight / fetal weight
[33] = group: maternal, reproductive / reproductive performance / aborted / aborted + reproductive / reproductive performance / resorptions / resorptions + systemic…
[34] = group: developmental, developmental / developmental malformation / kidney / absent renal papilla + developmental / developmental malformation / ureter / …
[35] = group: maternal, systemic / organ weight / liver / relative to body weight
[36] = group: maternal, systemic / organ weight / liver / relative to body weight + systemic / in life observation / body weight / body weight gain + systemic / in …
[37] = group: offspring, developmental / offspring survival late / viability index / viability index
[38] = group: offspring, developmental / offspring survival late / viability index / viability index + systemic / in life observation / body weight / offspring (pup…
[39] = group: parental, systemic / pathology microscopic / liver / hypertrophy + systemic / in life observation / body weight / body weight + systemic / pathology …
[40] = group: parental, systemic / pathology microscopic / liver / hypertrophy + systemic / in life observation / mortality / mortality
[41] = group: reproductive, reproductive / reproductive performance / gestational length / gestational length
[42] = group: reproductive, reproductive / reproductive performance / gestational length / gestational length + reproductive / offspring survival early / litter size / …
[43] = systemic / pathology microscopic / stomach / hyperplasia
[44] = systemic / organ weight / liver / relative to body weight + systemic / pathology microscopic / liver / hypertrophy
[45] = systemic / organ weight / liver / relative to body weight + systemic / pathology microscopic / liver / hypertrophy + systemic / clinical …
[46] = group: developmental, developmental / developmental malformation / bone / extra ossification site + developmental / developmental malformation / bone / incomplete…
[47] = group: maternal, reproductive / reproductive performance / resorptions / resorptions + systemic / in life observation / food consumption / food consumption…
[48] = group: developmental, developmental / developmental malformation / kidney / small renal papilla + developmental / developmental malformation / ureter / distended
[49] = group: developmental, developmental / developmental malformation / kidney / small renal papilla + developmental / developmental malformation / ureter / distended…

Compound: [Br-].[Br-].c1cc[n+]2c(c1)-c1cccc[n+]1CC2 [Diquat dibromide]
- LOAEL (rat [1]; systemic / pathology microscopic / eye / cataract): 0.58 mg/kg/day
- NOAEL (rat [1]; systemic / pathology microscopic / eye / cataract + systemic / in life observation / body weight / body weight gain + systemic / pathology …): 0.19 mg/kg/day
- LEL (rat [1]; [16]): 0.24 mg/kg/day
- NEL (rat [1]; [16]): < 0.24 mg/kg/day
- LEL (rat [2]; [17]): 40 mg/kg/day
- LOAEL (rat [2]; [17]): 40 mg/kg/day
- NEL (rat [2]; [17]): 12 mg/kg/day
- NOAEL (rat [2]; [17]): 12 mg/kg/day
- LOAEL (rat [2]; [18]): 12 mg/kg/day
- NOAEL (rat [2]; [19]): 4 mg/kg/day
- LEL (rat [2]; [20]): 4 mg/kg/day
- NEL (rat [2]; [20]): < 4 mg/kg/day
- LEL (rabbit [3]; [21]): 1 mg/kg/day
- NEL (rabbit [3]; [21]): < 1 mg/kg/day
- LOAEL (rabbit [3]; [22]): 10 mg/kg/day
- NOAEL (rabbit [3]; [22]): 3 mg/kg/day
- LEL (rabbit [3]; [18]): 3 mg/kg/day
- LOAEL (rabbit [3]; [18]): 3 mg/kg/day
- NEL (rabbit [3]; [19]): 1 mg/kg/day
- NOAEL (rabbit [3]; [19]): 1 mg/kg/day
- LOAEL (mouse [4]; [23]): 2 mg/kg/day
- NOAEL (mouse [4]; [23]): 1 mg/kg/day
- LEL (mouse [4]; [24]): 1 mg/kg/day
- NEL (mouse [4]; [24]): < 1 mg/kg/day
- LOAEL (mouse [4]; [25]): 2 mg/kg/day
- NOAEL (mouse [4]; [25]): 1 mg/kg/day
- LEL (mouse [4]; [26]): 1 mg/kg/day
- NEL (mouse [4]; [26]): < 1 mg/kg/day
- LEL (mouse [5]): 12 mg/kg/day
- LOAEL (mouse [5]): 12 mg/kg/day
- NEL (mouse [5]): 3.56 mg/kg/day
- NOAEL (mouse [5]): 3.56 mg/kg/day
- NEL (rat [6]; [27]): 4 mg/kg/day
- NOAEL (rat [6]; [27]): 4 mg/kg/day
- LEL (rat [6]; [28]): 12 mg/kg/day
- LOAEL (rat [6]; [28]): 12 mg/kg/day
- NEL (rat [6]; [29]): 0.8 mg/kg/day
- NOAEL (rat [6]; [29]): 0.8 mg/kg/day
- LEL (rat [6]; [30]): 4 mg/kg/day
- LOAEL (rat [6]; [30]): 4 mg/kg/day
- LOAEL (dog [7]; systemic / pathology microscopic / eye / opacity + systemic / organ weight / epididymis / relative to body weight): 2.5 mg/kg/day
- LEL (dog [7]; systemic / pathology microscopic / eye / opacity + systemic / organ weight / epididymis / relative to body weight + systemic / pathology …): 2.5 mg/kg/day
- NEL (dog [7]; [31]): 0.5 mg/kg/day
- NOAEL (dog [7]; [31]): 0.5 mg/kg/day

Compound: C[Si](Cn1cncn1)(c1ccc(F)cc1)c1ccc(F)cc1 [Flusilazole]
- LEL (rabbit [8]; [32]): 35 mg/kg/day
- LOAEL (rabbit [8]; [32]): 35 mg/kg/day
- NEL (rabbit [8]; [32]): 12 mg/kg/day
- NOAEL (rabbit [8]; [32]): 12 mg/kg/day
- LEL (rabbit [8]; [33]): 35 mg/kg/day
- LOAEL (rabbit [8]; [33]): 35 mg/kg/day
- NEL (rabbit [8]; [33]): 12 mg/kg/day
- NOAEL (rabbit [8]; [33]): 12 mg/kg/day
- LEL (rat [9]; [34]): 0.4 mg/kg/day
- LOAEL (rat [9]; [34]): 0.4 mg/kg/day
- NEL (rat [9]; [34]): < 0.4 mg/kg/day
- NOAEL (rat [9]; [34]): < 0.4 mg/kg/day
- LEL (rat [9]; [35]): 50 mg/kg/day
- LOAEL (rat [9]; [35]): 50 mg/kg/day
- NEL (rat [9]; [36]): 10 mg/kg/day
- NOAEL (rat [9]; [36]): 10 mg/kg/day
- NEL (rat [10]; [37]): 3.5 mg/kg/day
- NOAEL (rat [10]; [37]): 3.5 mg/kg/day
- LEL (rat [10]; [38]): 17.5 mg/kg/day
- LOAEL (rat [10]; [38]): 17.5 mg/kg/day
- LEL (rat [10]; [39]): 3.5 mg/kg/day
- LOAEL (rat [10]; [39]): 3.5 mg/kg/day
- NEL (rat [10]; [40]): 0.35 mg/kg/day
- NOAEL (rat [10]; [40]): 0.35 mg/kg/day
- NEL (rat [10]; [41]): 3.5 mg/kg/day
- NOAEL (rat [10]; [41]): 3.5 mg/kg/day
- LEL (rat [10]; [42]): 17.5 mg/kg/day
- LOAEL (rat [10]; [42]): 17.5 mg/kg/day
- NOAEL (dog [11]; systemic / organ weight / liver / absolute + systemic / organ weight / liver / relative to body weight + systemic / clinical chemistry / …): 0.9 mg/kg/day
- LOAEL (dog [11]; systemic / organ weight / liver / absolute + systemic / organ weight / liver / relative to body weight + systemic / pathology microscopic / …): 4.3 mg/kg/day
- LEL (dog [11]; [43]): 0.9 mg/kg/day
- NEL (dog [11]; [43]): < 0.9 mg/kg/day
- LEL (rat [12]; [44]): 2.6 mg/kg/day
- LOAEL (rat [12]; [44]): 2.6 mg/kg/day
- NEL (rat [12]; [45]): 0.53 mg/kg/day
- NOAEL (rat [12]; [45]): 0.53 mg/kg/day
- LOAEL (rat [13]; systemic / clinical chemistry / cholesterol / cholesterol + systemic / pathology microscopic / urinary bladder / hyperplasia): 27 mg/kg/day
- NOAEL (rat [13]; systemic / clinical chemistry / cholesterol / cholesterol + systemic / pathology microscopic / urinary bladder / hyperplasia + systemic / …): 9 mg/kg/day
- LEL (rat [13]; systemic / in life observation / body weight / body weight): 11 mg/kg/day
- NEL (rat [13]; systemic / in life observation / body weight / body weight + systemic / clinical chemistry / cholesterol / cholesterol + systemic / organ …): 2 mg/kg/day
- LOAEL (rat [14]; [46]): 300 ppm
- NEL (rat [14]; [46]): 50 ppm
- NOAEL (rat [14]; [46]): 100 ppm
- LEL (rat [14]; group: developmental, developmental / developmental malformation / bone / extra ossification site + developmental / developmental malformation / bone / unossified): 100 ppm
- LOAEL (rat [14]; group: maternal, reproductive / reproductive performance / resorptions / resorptions + systemic / in life observation / food consumption / food consumption): 300 ppm
- LEL (rat [14]; [47]): 300 ppm
- NEL (rat [14]; [47]): 100 ppm
- NOAEL (rat [14]; [47]): 100 ppm
- LEL (rat [15]; [48]): 10 mg/kg/day
- LOAEL (rat [15]; [48]): 10 mg/kg/day
- NEL (rat [15]; [49]): 2 mg/kg/day
- NOAEL (rat [15]; [49]): 2 mg/kg/day
- LEL (rat [15]; [19]): 100 mg/kg/day
- LOAEL (rat [15]; [19]): 100 mg/kg/day
- NEL (rat [15]; [19]): 10 mg/kg/day
- NOAEL (rat [15]; [19]): 10 mg/kg/day
